Tested on: Sec(GLP1TM4-5)R
Assay: cAMP response
Type: cell-based, human
Details: COS cells, LANCE, basal 2.1±0.5

CC(C)C[C@H](NC(=O)CNC(=O)[C@H](CCC(N)=O)NC(=O)[C@H](CC(C)C)NC(=O)[C@H](CC(C)C)NC(=O)[C@H](CCCNC(=N)N)NC(=O)[C@H](CCC(N)=O)NC(=O)[C@H](CC(C)C)NC(=O)[C@H](CCCNC(=N)N)NC(=O)[C@H](C)NC(=O)CNC(=O)[C@H](CCC(=O)O)NC(=O)[C@H](CCCNC(=N)N)NC(=O)[C@H](CC(C)C)NC(=O)[C@H](CCCNC(=N)N)NC(=O)[C@H](CO)NC(=O)[C@H](CC(C)C)NC(=O)[C@H](CCC(=O)O)NC(=O)[C@H](CO)NC(=O)[C@@H](NC(=O)[C@H](Cc1ccccc1)NC(=O)[C@@H](NC(=O)CNC(=O)[C@H](CC(=O)O)NC(=O)[C@H](CO)NC(=O)[C@@H](N)Cc1c[nH]cn1)[C@@H](C)O)[C@@H](C)O)C(=O)N[C@H](C(N)=O)C(C)C [secretin]
maximal cAMP level (Emax): 149±15 picomoles per million cells

Source: PMC2790544 (Biochemistry, 2009)
